Measurements as given in patent publication US20240376411A1, “IMPROVED PERFUME COMPOSITIONS COMPRISING SULFUR-CONTAINING PRO-FRAGRANCE COMPOUNDS” (FIRMENICH SA, priority 2021, published 2024).

Experiments:
[1] = logP above 4 (octanol-water partition coefficient); settings: Yes/No
[2] = Sensorial evaluation (hydrogen sulfide smell) of perfume compositions upon 1 and 2 weeks of storage at 50° C.; type: physicochemical; settings: for amount in the perfume composition that does not lead to an unpleasant hydrogen sulfide smell upon storage: conclusion from Tables 2 to 4, storage at 50° C.
Source text: (§1) To the first perfume composition, a perfumery raw material that promotes the formation of hydrogen sulfide ((−)-(2E)-2-ethyl-4-[(1R)-2,2,3-trimethyl-3-cyclopenten-1-yl]-2-buten-1-ol) has been added at various amounts (5 wt. %, 10 wt. %, 20 wt. %, 30 wt. %, and 40 wt. %, respectively, based on the total weight of the perfume composition). For each amount, it has been tested whether a hydrogen sulfide malodor could be perceived upon storage of the final perfume composition for 1 and 2 weeks, respectively, at 50° C.
as §1, with “Likewise, to” for “To”, “second” for “first”, “((+/−)-3-methyl-5-phenyl-1-pentanol)” for “((−)-(2E)-2-ethyl-4-[(1R)-2,2,3-trimethyl-3-cyclopenten-1-yl]-2-buten-1-ol)”
as §1, with “Likewise, to” for “To”, “third” for “first”, “((+/−)-3,7-dimethyl-6-octen-1-ol)” for “((−)-(2E)-2-ethyl-4-[(1R)-2,2,3-trimethyl-3-cyclopenten-1-yl]-2-buten-1-ol)”

[3] = 5 wt. % of the raw material in the perfume composition, even after 2 weeks of storage
[4] = 10 wt. % of the raw material in the perfume composition, even after 2 weeks of storage
[5] = above 20 wt. % of the raw material, after 1 week of storage

## CC(C)=CCCC(C)CCO (racemic) [(+/−)-3,7-dimethyl-6-octen-1-ol]
[1]
  logP > 4: No
[2]; [3]
  unpleasant hydrogen sulfide smell: no unpleasant hydrogen sulfide smell could be perceived
[2]; [4]
  unpleasant hydrogen sulfide smell: no unpleasant hydrogen sulfide smell could be perceived
[2]; [5]
  unpleasant hydrogen sulfide smell: unpleasant hydrogen sulfide smell was perceived
[2]
  amount in the perfume composition that does not lead to an unpleasant hydrogen sulfide smell upon storage: up to 19 wt. %

## CC(CCO)CCc1ccccc1 (racemic) [(+/−)-3-methyl-5-phenyl-1-pentanol]
[1]
  logP > 4: No
[2]; [3]
  unpleasant hydrogen sulfide smell: no unpleasant hydrogen sulfide smell could be perceived
[2]; [4]
  unpleasant hydrogen sulfide smell: no unpleasant hydrogen sulfide smell could be perceived
[2]; [5]
  unpleasant hydrogen sulfide smell: unpleasant hydrogen sulfide smell was perceived
[2]
  amount in the perfume composition that does not lead to an unpleasant hydrogen sulfide smell upon storage: up to 19 wt. %

## CC/C(=C\C[C@H]1CC=C(C)C1(C)C)CO [(−)-(2E)-2-ethyl-4-[(1R)-2,2,3-trimethyl-3-cyclopenten-1-yl]-2-buten-1-ol]
[1]
  logP > 4: Yes
[2]; [3]
  unpleasant hydrogen sulfide smell: no unpleasant hydrogen sulfide smell could be perceived
[2]; [4]
  unpleasant hydrogen sulfide smell: no unpleasant hydrogen sulfide smell could be perceived
[2]; at 20 wt. % (and above) of the raw material, only after 1 week of storage at 50° C.
  unpleasant hydrogen sulfide smell: unpleasant hydrogen sulfide smell was perceived
[2]
  amount in the perfume composition that does not lead to an unpleasant hydrogen sulfide smell upon storage: up to 19 wt. %
